Results on three molecules are retold here after patent US20190119284A1, “ErbB Inhibitors and Uses Thereof” (The Regents of the University of California, priority 2016, published 2019).

The test system of experiment [1] is wt or T787M HER3 kinase domain. As to the kind of experiment: Thermofluor stabilization of HER3 kinase domain. The settings on record: HER3 T787M vs wt kinase domain. Format: binding. An excerpt: (§1) FIGS. 4A-4F. Compound 2 is a selective Type I inhibitor for HER2. […] FIG. 4B: Thermal stabilization of the HER3 kinase domain by either compound 2 or ATP as determined by Thermofluor (mean±SD, n=3). FIGS. 4C-4D: The crystal structure of either erlotinib (FIG. 4C) or 2 (FIG. 4D) bound to EGFR V924R. The kinase domain in complex with compound 2 has been stabilized in the active confirmation by drug binding, despite the mutation—as evidenced by the ordered extension of the activation loop and the inward positioning of the α-C helix.
FIGS. 12A-12B. […] FIG. 12A. […] FIG. 12B. Stabilization of either wt or T787M HER3 kinase domain by compound 2 compared to DMSO as determined by thermofluor (mean value±SD, n=2).
(In DSF a fluorescence change marks the thermal transition of the protein.)

The target in experiment [2] is T1, HER3 intracellular domain (665-1323) (Homo sapiens, UniProt P21860).
T1 construct: The HER3 intracellular domain (665-1323) was concentrated on vesicles; made in house
As to the kind of experiment: HER3 intracellular domain autophosphorylation on vesicles. The experiment is classed as biochemical. The settings on record: 1 μM HER3 intracellular domain, 200 μM ATP. The protocol: FIG. 11. […] 1 μM of The HER3 intracellular domain (665-1323) was concentrated on vesicles and incubated with 200 μM ATP in the presence of varying concentrations of compound 2. HER3 kinase activity inhibition was evaluated by western blotting for autophosphorylation of HER3.

Experiment [3] concerns the target AKT1 (Homo sapiens, UniProt P31749). The experiment can be described thus: Nanosyn in vitro kinase profiling: AKT1. The experiment is classed as biochemical. On the procedure: (§2) This was confirmed by in vitro profiling against a panel of kinases, with compound 2 only showing potent inhibition of EGFR and Ab1 (Table 2).
(§3) In vitro Kinome Screen. In vitro profiling of compound 2 at 100 nM was conducted by Nanosyn.

The target of experiment [4] is TIE2 (Homo sapiens, UniProt Q02763). As to the kind of experiment: Nanosyn in vitro kinase profiling: TIE2. The experiment is classed as biochemical. The protocol: as §2, §3
Sequence of TIE2 (Q02763 23-1124, species assumed): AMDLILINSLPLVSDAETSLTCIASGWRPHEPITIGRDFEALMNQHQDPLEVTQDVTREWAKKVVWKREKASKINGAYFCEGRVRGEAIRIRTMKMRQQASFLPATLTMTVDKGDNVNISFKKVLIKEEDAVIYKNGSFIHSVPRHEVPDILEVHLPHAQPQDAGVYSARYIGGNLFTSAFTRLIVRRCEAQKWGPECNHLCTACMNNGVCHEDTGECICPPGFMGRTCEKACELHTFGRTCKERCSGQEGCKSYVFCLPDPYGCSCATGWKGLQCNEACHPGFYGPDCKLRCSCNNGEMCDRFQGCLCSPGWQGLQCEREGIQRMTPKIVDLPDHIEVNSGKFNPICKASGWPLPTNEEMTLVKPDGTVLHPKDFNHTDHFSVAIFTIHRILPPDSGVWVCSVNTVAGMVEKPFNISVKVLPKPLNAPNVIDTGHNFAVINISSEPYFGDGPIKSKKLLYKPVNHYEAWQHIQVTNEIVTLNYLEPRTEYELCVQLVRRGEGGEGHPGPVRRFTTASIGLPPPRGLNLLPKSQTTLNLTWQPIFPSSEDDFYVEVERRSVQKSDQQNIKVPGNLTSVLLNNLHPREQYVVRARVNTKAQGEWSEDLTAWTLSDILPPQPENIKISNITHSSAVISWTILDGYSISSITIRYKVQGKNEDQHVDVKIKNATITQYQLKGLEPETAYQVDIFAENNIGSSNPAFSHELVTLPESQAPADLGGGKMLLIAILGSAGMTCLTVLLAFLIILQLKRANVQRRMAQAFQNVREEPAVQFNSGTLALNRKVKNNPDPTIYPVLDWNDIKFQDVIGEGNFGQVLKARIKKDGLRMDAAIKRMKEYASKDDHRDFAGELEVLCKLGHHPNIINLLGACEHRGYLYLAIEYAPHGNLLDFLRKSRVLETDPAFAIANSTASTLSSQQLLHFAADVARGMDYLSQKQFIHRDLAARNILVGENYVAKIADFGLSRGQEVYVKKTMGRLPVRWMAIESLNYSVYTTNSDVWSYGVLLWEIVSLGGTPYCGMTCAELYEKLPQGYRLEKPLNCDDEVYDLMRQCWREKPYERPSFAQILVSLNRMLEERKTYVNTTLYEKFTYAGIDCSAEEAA
Experiment [5] concerns the target T2, EGFR gatekeeper to methionine mutant in NCI-H1975 cells (Homo sapiens, UniProt P00533, L858R/T790M).
T2 construct: mutation of the EGFR gatekeeper to methionine in NCI-H1975 cells; endogenous in cells; host or cells: NCI-H1975
The experiment can be described thus: EGFR signaling and proliferation in NCI-H1975 cells. Format: cell-based.

Experiment [6] has as its target T3, 2YF-L755S/3wt + NRG Ba/F3 cells (Homo sapiens, UniProt P04626, L755S/Y1005F/Y1023F/Y1112F/Y1127F/Y1139F/Y1196F/Y1221F/Y1222F/Y1248F, cells depend on it).
T3 construct: reported HER2 oncogenic mutants in the HER2YF construct
The experiment can be described thus: Ba/F3 proliferation assay, 2YF-L755S/3wt + NRG. The experiment is classed as cell-based. To be noted: Table 4; ± S.D., n = 2; read-out: IC50, 2YF-L755S/3wt + NRG. The protocol:
For the 2YF/3wt cells, the parental cells were first transduced with HER3 according to the protocol above and were then spun down at 500×g for 5 min and re-suspended in media supplemented with 10 ng/mL IL-3 and 3 μg/mL puromycin (Invitrogen). Cells were maintained in these conditions for seven days, passaging as required. After seven days the cells were spun down, washed with fresh media, and then used for a subsequent round of transduction according to the protocol above with HER2YF virus. […] The cells were maintained in these conditions for seven days, passaging as required. After seven days the cells were spun down, washed with fresh media, and then suspended in media supplemented with 10 ng/mL of NRG. Cells were maintained in these conditions for seven days to select for a NRG dependent population of 2YF/3wt Ba/F3 cells that were then maintained as described above. The same protocol was used for the 2YF-L755S/3wt, 2YF-YVMA/3wt, and 2YF-VC/3wt cell lines using the indicated constructs.
Proliferation Assays. […] The following day media was changed to fresh media that contained either DMSO or the indicated concentration of drug plus NRG (50 ng/mL final concentration) as indicated. […] For all normalized assays, proliferation was normalized to the DMSO control condition. […]

Experiment [7] addresses T4, wt EGFR (Homo sapiens, UniProt P00533).
T4 construct: leaving the same phosphosites on wt EGFR relatively unaffected up to 1 μM; endogenous in cells
The experiment can be described thus: phosphosite signaling on wt EGFR. Format: cell-based.

For experiment [8], the target named is CDK1 (Homo sapiens, UniProt P06493). The experiment can be described thus: Nanosyn in vitro kinase profiling: CDK1. The settings on record: compound at 1 μM. Format: biochemical.
For experiment [9], the target named is CAMK4 (Homo sapiens, UniProt Q16566). As to the kind of experiment: Nanosyn in vitro kinase profiling: CAMK4. Format: biochemical. To be noted: compound at 1 μM.
Sequence of CAMK4 (Q16566 whole entry, species assumed): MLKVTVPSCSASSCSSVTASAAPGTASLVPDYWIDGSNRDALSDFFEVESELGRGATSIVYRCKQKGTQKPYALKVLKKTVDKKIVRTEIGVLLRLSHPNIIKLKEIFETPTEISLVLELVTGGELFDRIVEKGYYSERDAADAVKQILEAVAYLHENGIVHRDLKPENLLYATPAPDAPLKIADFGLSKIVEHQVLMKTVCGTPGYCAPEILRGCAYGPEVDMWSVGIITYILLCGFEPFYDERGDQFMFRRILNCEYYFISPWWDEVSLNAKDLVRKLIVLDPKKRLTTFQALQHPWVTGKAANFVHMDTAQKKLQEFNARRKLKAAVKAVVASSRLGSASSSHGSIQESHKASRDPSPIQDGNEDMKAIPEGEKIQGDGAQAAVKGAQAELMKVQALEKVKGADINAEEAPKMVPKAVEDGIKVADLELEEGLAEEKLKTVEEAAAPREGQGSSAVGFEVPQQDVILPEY
The subject of experiment [10] is Ba/F3 cell line panel (HER2YF/HER3). As to the kind of experiment: 48 h proliferation of the Ba/F3 cell line panel (CellTiter-Glo). The experiment is classed as cell-based. The settings on record: 48 h proliferation curves. The protocol:
FIGS. 3A-3D. Design and execution of a high-throughput screen identifies a novel HER2/HER3 inhibitor. FIG. 3A: 2YF/3wt cells were incubated in the presence or absence of NRG for 48 h and proliferation was assessed by CellTiter-Glo (mean±SD, n=1). […] FIG. 3C: Structure and proliferation curves for hit compound 1 (also referred herein as compound 185) against the Ba/F3 cell line panel (mean±SD, n=3), FIG. 3D: Structure and proliferation curves for compound 2 (also referred to herein as compound 55A) against the panel of Ba/F3 cell lines (mean±SD, n=3).
as §1
FIGS. 5A-5D. […] FIG. 5A: Chemical structure of compound 3 (also referred to herein as compound 178). FIG. 5B: Proliferation curves for compound 3 against the Ba/F3 cell line panel (mean±SD, n=3). […] FIG. 5D: The same assay in FIG. 2A was performed with compound 3 in SK-BR-3 cells.
FIG. 10. […]
On the technique in general: Cellular ATP, detected with luciferase, serves as a proxy for viable cell number.

Experiment [11] has as its system HER2 mutants biased towards the active conformation (NCI-H1781 cells). The experiment can be described thus: signaling in NCI-H1781 cells after 15 min. Format: cell-based. To be noted: NCI-H1781, dose response.

Sequence of AKT1 (P31749 whole entry): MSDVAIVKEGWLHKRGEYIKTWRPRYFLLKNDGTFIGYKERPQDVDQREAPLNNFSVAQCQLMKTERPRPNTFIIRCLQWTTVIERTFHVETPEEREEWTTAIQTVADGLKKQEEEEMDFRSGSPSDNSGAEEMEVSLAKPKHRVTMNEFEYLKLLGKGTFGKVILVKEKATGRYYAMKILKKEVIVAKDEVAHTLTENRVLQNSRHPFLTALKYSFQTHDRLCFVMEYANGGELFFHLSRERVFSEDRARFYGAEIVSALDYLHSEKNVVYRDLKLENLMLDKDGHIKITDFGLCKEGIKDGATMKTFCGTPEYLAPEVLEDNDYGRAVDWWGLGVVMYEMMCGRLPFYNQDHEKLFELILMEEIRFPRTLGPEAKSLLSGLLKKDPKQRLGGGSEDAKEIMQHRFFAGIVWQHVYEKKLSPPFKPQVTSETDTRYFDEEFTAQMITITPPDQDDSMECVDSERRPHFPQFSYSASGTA
T2 sequence (P00533 25-1210 T790M/L858R): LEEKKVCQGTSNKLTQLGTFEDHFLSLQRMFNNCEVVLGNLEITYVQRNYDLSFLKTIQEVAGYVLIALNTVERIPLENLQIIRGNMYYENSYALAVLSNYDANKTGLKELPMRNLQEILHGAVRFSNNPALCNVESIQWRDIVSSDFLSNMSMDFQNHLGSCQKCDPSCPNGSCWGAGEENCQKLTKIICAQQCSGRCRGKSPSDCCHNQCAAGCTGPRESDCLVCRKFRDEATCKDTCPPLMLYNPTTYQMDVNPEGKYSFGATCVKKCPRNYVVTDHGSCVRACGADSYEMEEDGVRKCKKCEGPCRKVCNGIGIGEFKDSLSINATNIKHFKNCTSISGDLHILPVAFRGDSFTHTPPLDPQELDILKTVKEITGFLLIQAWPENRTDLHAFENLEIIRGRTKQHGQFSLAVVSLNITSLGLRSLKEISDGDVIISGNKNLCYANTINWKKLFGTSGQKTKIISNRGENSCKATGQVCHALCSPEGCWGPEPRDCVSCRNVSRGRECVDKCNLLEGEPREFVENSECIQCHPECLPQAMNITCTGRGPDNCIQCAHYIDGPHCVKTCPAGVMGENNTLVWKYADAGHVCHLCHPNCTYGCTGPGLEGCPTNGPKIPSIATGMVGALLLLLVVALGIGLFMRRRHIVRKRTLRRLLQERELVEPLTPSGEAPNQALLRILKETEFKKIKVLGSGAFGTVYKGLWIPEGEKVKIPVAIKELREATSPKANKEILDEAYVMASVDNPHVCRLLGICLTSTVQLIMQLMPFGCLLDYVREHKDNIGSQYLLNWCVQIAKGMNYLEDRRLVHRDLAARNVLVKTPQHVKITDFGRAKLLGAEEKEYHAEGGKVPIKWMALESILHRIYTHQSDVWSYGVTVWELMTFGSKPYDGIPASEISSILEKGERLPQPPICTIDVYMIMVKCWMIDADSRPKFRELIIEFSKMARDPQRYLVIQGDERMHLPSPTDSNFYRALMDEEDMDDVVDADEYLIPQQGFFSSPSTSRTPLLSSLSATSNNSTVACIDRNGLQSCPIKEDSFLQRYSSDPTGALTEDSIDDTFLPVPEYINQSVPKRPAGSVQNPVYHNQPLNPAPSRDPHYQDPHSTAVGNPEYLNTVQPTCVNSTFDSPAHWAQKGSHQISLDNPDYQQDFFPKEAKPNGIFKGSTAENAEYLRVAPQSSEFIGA
T3 sequence (P04626 whole entry L755S/Y1005F/Y1023F/Y1112F/Y1127F/Y1139F/Y1196F/Y1221F/Y1222F/Y1248F): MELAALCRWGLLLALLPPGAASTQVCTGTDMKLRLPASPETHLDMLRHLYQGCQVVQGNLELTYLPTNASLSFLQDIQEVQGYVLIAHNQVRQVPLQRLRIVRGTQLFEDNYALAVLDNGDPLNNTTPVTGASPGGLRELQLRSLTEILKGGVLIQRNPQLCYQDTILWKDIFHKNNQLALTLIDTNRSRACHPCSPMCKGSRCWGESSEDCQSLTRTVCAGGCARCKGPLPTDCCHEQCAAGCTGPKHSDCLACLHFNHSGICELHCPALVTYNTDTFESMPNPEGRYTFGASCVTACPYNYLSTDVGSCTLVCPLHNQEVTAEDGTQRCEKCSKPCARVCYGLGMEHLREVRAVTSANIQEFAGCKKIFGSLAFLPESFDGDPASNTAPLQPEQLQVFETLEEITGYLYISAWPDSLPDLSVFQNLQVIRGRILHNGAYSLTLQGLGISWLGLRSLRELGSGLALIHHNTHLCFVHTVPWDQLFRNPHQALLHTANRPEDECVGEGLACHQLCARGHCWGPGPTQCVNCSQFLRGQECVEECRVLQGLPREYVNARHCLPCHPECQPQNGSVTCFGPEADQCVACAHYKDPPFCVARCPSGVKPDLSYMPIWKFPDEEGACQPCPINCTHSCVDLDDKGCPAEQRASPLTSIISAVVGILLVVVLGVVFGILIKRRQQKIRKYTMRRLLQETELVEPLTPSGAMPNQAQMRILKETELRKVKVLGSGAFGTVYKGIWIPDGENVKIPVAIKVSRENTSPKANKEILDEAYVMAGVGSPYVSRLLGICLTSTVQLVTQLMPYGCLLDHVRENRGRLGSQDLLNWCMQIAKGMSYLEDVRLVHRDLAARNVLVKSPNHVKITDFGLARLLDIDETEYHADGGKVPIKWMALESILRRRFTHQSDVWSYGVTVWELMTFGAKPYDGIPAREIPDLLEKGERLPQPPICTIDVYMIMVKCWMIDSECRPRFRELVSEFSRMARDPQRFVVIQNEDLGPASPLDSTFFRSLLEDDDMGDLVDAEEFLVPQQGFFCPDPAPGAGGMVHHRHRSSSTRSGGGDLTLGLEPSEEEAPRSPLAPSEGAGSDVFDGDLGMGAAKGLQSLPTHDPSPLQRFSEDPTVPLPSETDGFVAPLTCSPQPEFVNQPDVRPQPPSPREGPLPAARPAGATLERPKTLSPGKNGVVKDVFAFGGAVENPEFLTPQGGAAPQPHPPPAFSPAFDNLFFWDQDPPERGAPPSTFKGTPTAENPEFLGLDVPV

One may read the inhibition as the change of the read-out against control, counted positive when it falls. With `COc1ccc(-c2ccco2)cc1Nc1ncnc2[nH]nc(-c3ccco3)c12` [compound 2, 3-(furan-2-yl)-N-(5-(furan-2-yl)-2-methoxyphenyl)-1H-pyrazolo[3,4-d]pyrimidin-4-amine], in experiment [1], the “effect of gatekeeper mutation on binding affinity” value is “reduces the binding affinity”. Also, the “binding to HER3 / inhibition of HER3 autophosphorylation” value in [2] was “binds to the active site of HER3”. In addition, the results for the inhibition at 0.1 µM in experiment [3] (compound at 100 nM) and in [4] (compound at 100 nM) were 14.3% and 12.8%, respectively. Moreover, the inhibition at 1 µM was 33% in [3] (compound at 1 μM) and 59.7% in [4] (compound at 1 μM).
For the molecule `COc1ccc(-c2ccoc2)cc1Nc1ncnc2[nH]cc(-c3cc[nH]n3)c12` [compound 3, N-(5-(furan-3-yl)-2-methoxyphenyl)-5-(1H-pyrazol-3-yl)-7H-pyrrolo[2,3-d]pyrimidin-4-amine], the “p-845 site inhibition at concentrations” value in experiment [5] (EGFR gatekeeper methionine) is given as “less than 1 μM”. In addition, in experiment [5] (signaling and proliferation), the “effect of EGFR gatekeeper methionine mutation on inhibition” value was “caused a shift in the ability of compound 3 to inhibit both signaling and proliferation”. For the same molecule, the GI50 in experiment [6] is 0.0382 ± 0.0029 µM. The “same phosphosites on wt EGFR relatively unaffected up to” value in experiment [7] was over 1 µM. In addition, the results for the inhibition at 1 µM in [8] and in [9] were 18% and 0%, respectively.
Turning to `CS(=O)(=O)CCNCc1ccc(-c2ccc3ncnc(Nc4ccc(OCc5cccc(F)c5)c(Cl)c4)c3c2)o1` [lapatinib], the “level of pathway inhibition distinguished by the Ba/F3 panel” value in experiment [10] is listed as “specifically inhibit signaling at the HER2/HER3 level”. Also, in [11], the “binding to HER2 mutants judged by signaling after short treatment” value is on record as “does not efficiently bind to HER2 mutants biased towards the active conformation”.
